The target in one assay is T1, KRASwt (Homo sapiens, UniProt P01116).
T1 construct: made in house; host or cells: E. coli BL21 (DE3)
As to the kind of experiment: Bio-Biochem-PPI-HTRF Ras-SOS1 interaction assay (KRAS wt). The note with it: 5 nM. In kind it is biochemical. An outline of the steps:
(§1)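 Inhibition of His-hSOS1 binding to GST-tagged wild-type or G12D K-Ras is read as HTRF ratio (665/620 nm) following incubation of about 10 minutes or longer, and IC50 values are fitted from duplicate six-point titrations.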

In the next assay the target is T2, KRASG12D (Homo sapiens, UniProt P01116, G12D).
T2 construct: made in house; host or cells: E. coli BL21 (DE3)
Description: Bio-Biochem-PPI-HTRF Ras-SOS1 interaction assay (KRAS G12D). The note with it: 5 nM. The assay is classed as biochemical. The gist of the method: as §1

T1 sequence (P01116 1-188 isoform P01116-2): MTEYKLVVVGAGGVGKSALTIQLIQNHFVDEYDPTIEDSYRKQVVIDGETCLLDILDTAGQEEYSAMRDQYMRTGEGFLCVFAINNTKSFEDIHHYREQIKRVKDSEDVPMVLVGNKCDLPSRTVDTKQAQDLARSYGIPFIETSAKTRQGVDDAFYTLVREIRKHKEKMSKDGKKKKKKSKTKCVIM
T2 sequence (P01116 1-188 isoform P01116-2 G12D): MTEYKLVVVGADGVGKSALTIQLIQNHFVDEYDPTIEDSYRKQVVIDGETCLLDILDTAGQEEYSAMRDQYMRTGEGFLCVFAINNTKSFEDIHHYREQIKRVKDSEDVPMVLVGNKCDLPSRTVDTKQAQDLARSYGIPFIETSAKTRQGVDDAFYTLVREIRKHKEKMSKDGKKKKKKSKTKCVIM

With `N#Cc1c(N)sc2c(F)ccc(-c3c(Cl)cc4c(N5CCCCC6(CN(C(=O)[C@]78COC[C@H]7C8(F)F)C6)C5)nc(OC[C@@]56CCCN5C[C@H](F)C6)nc4c3F)c12` [compound 240, 2-amino-4-(6-chloro-4-(2-((1R,5S)-6,6-difluoro-3-oxabicyclo[3.1.0]hexane-1-carbonyl)-2,6-diazaspiro[3.6]decan-6-yl)-8-fluoro-2-(((2R,7aS)-2-fluorotetrahydro-1H-pyrrolizin-7a(5H)-yl)methoxy)quinazolin-7-yl)-7-fluorobenzo[b]thiophene-3-carbonitrile], the IC50 against KRASwt and on KRASG12D was less than 5 µM in each case.
Regarding `N#Cc1c(N)sc2c(F)ccc(-c3c(Cl)cc4c(N5CCC(O)CC6(CN(C(=O)C(F)F)C6)C5)nc(OC[C@@]56CCCN5C[C@H](F)C6)nc4c3F)c12` (stereo partly drawn) [compound 241, 2-amino-4-(6-chloro-4-(2-(2,2-difluoroacetyl)-9-hydroxy-2,6-diazaspiro [3.6]decan-6-yl)-8-fluoro-2-(((2R,7aS)-2-fluorotetrahydro-1H-pyrrolizin-7a(5H)-yl)methoxy)quinazolin-7-yl)-7-fluorobenzo[b]thiophene-3-carbonitrile], the IC50 against KRASwt and on KRASG12D was less than 5 µM each time.
Consider `N#Cc1c(N)sc2c(F)ccc(-c3c(Cl)cc4c(N5CCCCC6(CN(C(=O)C7(C#N)CC7)C6)C5)nc(OC[C@@]56CCCN5C[C@H](F)C6)nc4c3F)c12` [compound 242, 2-amino-4-(6-chloro-4-(2-(1-cyanocyclopropane-1-carbonyl)-2,6-diazaspiro[3.6]decan-6-yl)-8-fluoro-2-(((2R,7aS)-2-fluorotetrahydro-1H-pyrrolizin-7a(5H)-yl)methoxy)quinazolin-7-yl)-7-fluorobenzo[b]thiophene-3-carbonitrile], for which the concentration for half-maximal inhibition (IC50) on KRASwt and on KRASG12D was less than 5 µM throughout.
With `C[C@@H](O)C(=O)N1CC2(CCCCN(c3nc(OC[C@@]45CCCN4C[C@H](F)C5)nc4c(F)c(-c5ccc(F)c6sc(N)c(C#N)c56)c(Cl)cc34)C2)C1` [compound 243, 2-amino-4-(6-chloro-8-fluoro-2-(((2R,7aS)-2-fluorotetrahydro-1H-pyrrolizin-7a(5H)-yl)methoxy)-4-(2-((R)-2-hydroxypropanoyl)-2,6-diazaspiro[3.6]decan-6-yl)quinazolin-7-yl)-7-fluorobenzo[b] thiophene-3-carbonitrile], the half-maximal inhibitory concentration (IC50) at KRASwt and against KRASG12D was less than 5 µM in each case.
For `N#Cc1c(N)sc2c(F)ccc(-c3c(Cl)cc4c(N5CCCCC6(CN(C(=O)C7(C(F)(F)F)CC7)C6)C5)nc(OC[C@@]56CCCN5C[C@H](F)C6)nc4c3F)c12` [compound 244, 2-amino-4-(6-chloro-8-fluoro-2-(((2R,7aS)-2-fluorotetrahydro-1H-pyrrolizin-7a(5H)-yl)methoxy)-4-(2-(1-(trifluoromethyl)cyclopropane-1-carbonyl)-2,6-diazaspiro[3.6]decan-6-yl)quinazolin-7-yl)-7-fluorobenzo[b] thiophene-3-carbonitrile], the IC50 at KRASwt and against KRASG12D was less than 5 µM each time.
As to `CC(C)=C(C#N)C(=O)N1CC2(C1)CN(c1nc(OC[C@@]34CCCN3C[C@H](F)C4)nc3c(F)c(-c4ccc(F)c5sc(N)c(C#N)c45)c(Cl)cc13)CCO2` [compound 245, 2-amino-4-(6-chloro-4-(2-(2-cyano-3-methylbut-2-enoyl)-5-oxa-2,8-diazaspiro[3.5]nonan-8-yl)-8-fluoro-2-(((2R,7aS)-2-fluorotetrahydro-1H-pyrrolizin-7a(5H)-yl)methoxy)quinazolin-7-yl)-7-fluorobenzo[b]thiophene-3-carbonitrile], the IC50 against KRASwt and against KRASG12D was less than 5 µM throughout.
As for `N#Cc1c(N)sc2c(F)ccc(-c3c(F)c4nc(OC[C@@]56CCCN5C[C@H](F)C6)nc(N5CCCCC6(CN(C(=O)C7CC7(F)F)C6)C5)c4c(=O)n3C3CC3)c12` (stereo partly drawn) [compound 246, 2-amino-4-(6-cyclopropyl-4-(2-(2,2-difluorocyclopropane-1-carbonyl)-2,6-diazaspiro[3.6]decan-6-yl)-8-fluoro-2-(((2R,7aS)-2-fluorotetrahydro-1H-pyrrolizin-7a(5H)-yl)methoxy)-5-oxo-5,6-dihydropyrido[4,3-d]pyrimidin-7-yl)-7-fluorobenzo[b]thiophene-3-carbonitrile], the IC50 at KRASwt and against KRASG12D was less than 5 µM throughout.
With `N#Cc1c(N)sc2c(F)ccc(-c3c(Cl)cc4c(N5CCOCC6(CN(C(=O)[C@H]7CC7(F)F)C6)C5)nc(OC[C@@]56CCCN5C[C@H](F)C6)nc4c3F)c12` [compound 247, 2-amino-4-(6-chloro-4-(2-((R)-2,2-difluorocyclopropane-1-carbonyl)-6-oxa-2,9-diazaspiro[3.6]decan-9-yl)-8-fluoro-2-(((2R,7aS)-2-fluorotetrahydro-1H-pyrrolizin-7a(5H)-yl)methoxy)quinazolin-7-yl)-7-fluorobenzo[b]thiophene-3-carbonitrile], the half-maximal inhibitory concentration (IC50) against KRASwt and at KRASG12D was less than 5 µM each time.
Take `Nc1nc2c(-c3c(Cl)cc4c(N5CCC6(CC5)CN(C(=O)c5nc[nH]n5)C6)nc(OC[C@@]56CCCN5C[C@H](F)C6)nc4c3F)ccc(F)c2s1` [compound 248, (7-(7-(2-amino-7-fluorobenzo[d]thiazol-4-yl)-6-chloro-8-fluoro-2-(((2R,7aS)-2-fluorotetrahydro-1H-pyrrolizin-7a(5H)-yl)methoxy)quinazolin-4-yl)-2,7-diazaspiro[3.5]nonan-2-yl) (1H-1,2,4-triazol-3-yl)methanone]: the IC50 against KRASwt and on KRASG12D was less than 5 µM throughout.
In the case of `N#Cc1c(N)sc2c(F)ccc(-c3c(Cl)cc4c(N5CCC(O)CC6(CN(C(=O)[C@@H]7CC7(F)F)C6)C5)nc(OC[C@@]56CCCN5C[C@H](F)C6)nc4c3F)c12` (stereo partly drawn) [compound 249, 2-amino-4-(6-chloro-4-(2-((S)-2,2-difluorocyclopropane-1-carbonyl)-9-hydroxy-2,6-diazaspiro[3.6]decan-6-yl)-8-fluoro-2-(((2R,7aS)-2-fluorotetrahydro-1H-pyrrolizin-7a(5H)-yl)methoxy)quinazolin-7-yl)-7-fluorobenzo[b]thiophene-3-carbonitrile], the IC50 against KRASwt and on KRASG12D was less than 5 µM each time.
For the compound `N#Cc1c(N)sc2c(F)ccc(-c3c(Cl)cc4c(N5CCCCC6(CN(C(=O)N7CC(F)C7)C6)C5)nc(OC[C@@]56CCCN5C[C@H](F)C6)nc4c3F)c12` [compound 250, 2-amino-4-(6-chloro-8-fluoro-4-(2-(3-fluoroazetidine-1-carbonyl)-2,6-diazaspiro[3.6]decan-6-yl)-2-(((2R,7aS)-2-fluorotetrahydro-1H-pyrrolizin-7a(5H)-yl)methoxy)quinazolin-7-yl)-7-fluorobenzo[b]thiophene-3-carbonitrile], the IC50 against KRASwt and on KRASG12D was less than 5 µM in each case.
In the case of `N#Cc1c(N)sc2c(F)ccc(-c3c(Cl)cc4c(N5CCCCC6(CN(C(=O)C(F)Cl)C6)C5)nc(OC[C@@]56CCCN5C[C@H](F)C6)nc4c3F)c12` (stereo partly drawn) [compound 251, 2-amino-4-(6-chloro-4-(2-(2-chloro-2-fluoroacetyl)-2,6-diazaspiro [3.6]decan-6-yl)-8-fluoro-2-(((2R,7aS)-2-fluorotetrahydro-1H-pyrrolizin-7a(5H)-yl)methoxy)quinazolin-7-yl)-7-fluorobenzo[b]thiophene-3-carbonitrile], the IC50 against KRASwt and against KRASG12D was less than 5 µM in each case.
`N#Cc1c(N)sc2c(F)ccc(-c3c(Cl)cc4c(N5CCOC6(CN(C(=O)C7(C(F)F)COC7)C6)C5)nc(OC[C@@]56CCCN5C[C@H](F)C6)nc4c3F)c12` [compound 252, 2-amino-4-(6-chloro-4-(2-(3-(difluoromethyl)oxetane-3-carbonyl)-5-oxa-2,8-diazaspiro[3.5]nonan-8-yl)-8-fluoro-2-(((2R,7aS)-2-fluorotetrahydro-1H-pyrrolizin-7a(5H)-yl)methoxy)quinazolin-7-yl)-7-fluorobenzo[b]thiophene-3-carbonitrile]: the concentration for half-maximal inhibition (IC50) against KRASwt and at KRASG12D was less than 5 µM in each case.
With `N#Cc1c(N)sc2c(F)ccc(-c3c(Cl)cc4c(N5CCCCC6(CN(C(=O)C7(F)CC7)C6)C5)nc(OC[C@@]56CCCN5C[C@H](F)C6)nc4c3F)c12` [compound 253, 2-amino-4-(6-chloro-8-fluoro-4-(2-(1-fluorocyclopropane-1-carbonyl)-2,6-diazaspiro[3.6]decan-6-yl)-2-(((2R,7aS)-2-fluorotetrahydro-1H-pyrrolizin-7a(5H)-yl)methoxy)quinazolin-7-yl)-7-fluorobenzo[b]thiophene-3-carbonitrile], the IC50 against KRASwt and at KRASG12D was less than 5 µM throughout.
Consider `N#Cc1c(N)sc2c(F)ccc(-c3c(Cl)cc4c(N5CCC(C(F)F)CC6(CN(C(=O)[C@@H]7CC7(F)F)C6)C5)nc(OC[C@@]56CCCN5C[C@H](F)C6)nc4c3F)c12` (stereo partly drawn) [compound 254, 2-amino-4-(6-chloro-4-(2-((S)-2,2-difluorocyclopropane-1-carbonyl)-9-(difluoromethyl)-2,6-diazaspiro[3.6]decan-6-yl)-8-fluoro-2-(((2R,7aS)-2-fluorotetrahydro-1H-pyrrolizin-7a(5H)-yl)methoxy)quinazolin-7-yl)-7-fluorobenzo[b]thiophene-3-carbonitrile], for which the IC50 against KRASwt and at KRASG12D was less than 5 µM each time.
Regarding `N#Cc1c(N)sc2c(F)ccc(-c3c(Cl)cc4c(N5CCCCC6(CN(CC7CC7(F)F)C6)C5)nc(OC[C@@]56CCCN5C[C@H](F)C6)nc4c3F)c12` (stereo partly drawn) [compound 255, 2-amino-4-(6-chloro-4-(2-((2,2-difluorocyclopropyl)methyl)-2,6-diazaspiro[3.6]decan-6-yl)-8-fluoro-2-(((2R,7aS)-2-fluorotetrahydro-1H-pyrrolizin-7a(5H)-yl)methoxy)quinazolin-7-yl)-7-fluorobenzo[b]thiophene-3-carbonitrile], the IC50 on KRASwt and against KRASG12D was less than 5 µM throughout.

The values above are taken from patent publication US20240109918A1, “HETEROCYCLIC COMPOUNDS AND USES THEREOF” (Kumquat Biosciences Inc., priority 2022, published 2024).
